Where no end group is shown, it is not given here. [ ]: non-standard residue; d: D form. Cit = NC(=O)NCCC[C@H](N)C(=O)O
Experiments:
[1] = system: autoimmune antibodies in sera from patients suffering from rheumatoid arthritis; assay: ELISA of coupled peptides with RA sera; format: binding, human; conditions: n = 134 RA sera, positive = OD450 of 0.2 after deduction of blank; for RA sera: number of positive sera: sera diluted 200 times
Experimental: (§1) Detection by Means of ELISA
Via an N-oxysuccinimide surface the peptides were covalently coupled to the wells of 96-well microtitre plates (Costar amide binding plates) in an amount of 1 ? g/well. Coupling took place for 16 hours at 4EC and pH 9.0. The plates were blocked for 1 hour with 2% bovine serum albumin. The sera were diluted 200 times in a diluent (0.3% BSA, 350 mM NaCl, 10 mM Tris-HCl pH 7.6, 1% vol./vol. Triton X-100, 0.5% w./vol. Na-deoxycholate, 0.1% SDS) supplemented with 10% normal rabbit serum, and incubated for one hour at room temperature. After washing the plates (3 times with PBS containing 0.05 by vol. of Tween® 20), 100 ? l of antihuman IgG conjugated with peroxidase (Dako P214), 1000 times diluted in dilution buffer, was added to the wells. After incubation for 1 hour at room temperature, the plates were washed 3 times with PBS/Tween®, and bound antibodies were detected with tetramethyl benzidine as a substrate. After 10 minutes the reaction was stopped by adding 100 ? l of 2 M sulphuric acid per well. Readout occurred at 450 nm. Sera having an OD450 of 0.2, after deduction of the blank for the respective serum (a well without a coupled peptide), were considered to be positive. […]

[2] = system: antibodies in control sera from patients suffering from rheumatic diseases other than RA; assay: ELISA of coupled peptides with control sera; format: binding, human; conditions: for control sera (%) positive / control sera: number of positive sera: n = 154, rheumatic diseases other than RA
Experimental: as §1
(§2) Via an N-oxysuccinimide surface the peptides were covalently coupled to the wells of 96-well microtitre plates (Costar amide binding plates) in an amount of 1 ? g/well. Coupling took place for 16 hours at 4EC and pH 9.0. The plates were blocked for 1 hour with 2% bovine serum albumin. The sera were diluted 200 times in a diluent (0.3% BSA, 350 mM NaCl, 10 mM Tris-HCl pH 7.6, 1% vol./vol. Triton X-100, 0.5% w./vol. Na-deoxycholate, 0.1% SDS) supplemented with 10% normal rabbit serum, and incubated for one hour at room temperature. After washing the plates (3 times with PBS containing 0.05 by vol. of Tween® 20), 100 ? l of antihuman IgG conjugated with peroxidase (Dako P214), 1000 times diluted in dilution buffer, was added to the wells. After incubation for 1 hour at room temperature, the plates were washed 3 times with PBS/Tween®, and bound antibodies were detected with tetramethyl benzidine as a substrate. After 10 minutes the reaction was stopped by adding 100 ? l of 2 M sulphuric acid per well. Readout occurred at 450 nm. Sera having an OD450 of 0.2, after deduction of the blank for the respective serum (a well without a coupled peptide), were considered to be positive.
In total, 288 sera from patients suffering from rheumatoid diseases were used, 132 of which were from patients suffering from rheumatoid arthritis.

[3] = system: antibodies in pSS (primary Sjögren's syndrome) sera; assay: ELISA of coupled peptides with pSS sera; format: binding, human; conditions: n = 50
Experimental: as §1, §2

[4] = system: antibodies in SLE (systemic lupus erythematosus) sera; assay: ELISA of coupled peptides with SLE sera; format: binding, human; conditions: n = 50
Experimental: as §1, §2

[5] = system: recombinant monoclonal antibody described by applicants; assay: Reactivity of peptides with the recombinant monoclonal antibody; format: binding
[6] = system: antibodies in PM/DM (polymyositis/dermatomyositis) sera; assay: ELISA of coupled peptides with PM/DM sera; format: binding, human; conditions: n = 50
Experimental: as §1, §2

[7] = system: antibodies in SSC (systemic scleroderma) sera; assay: ELISA of coupled peptides with SSC sera; format: binding, human; conditions: n = 50
Experimental: as §1, §2

[8] = system: antibodies in sera from patients suffering from various infectious diseases; assay: ELISA with sera from patients suffering from various infectious diseases; format: binding, human; conditions: 308 tested sera

| Sequence | RA sera (%) positive [1] [%] | RA sera (%) positive ([1]; listed as Formula II) | RA sera: number of positive sera [1] | control sera (%) positive [2] [%] | control sera: number of positive sera [2] | percentage of false positives ([2]; other autoimmune diseases and healthy individuals) | pSS: number of positive sera [3] | SLE (%) positive [4] [%] | SLE: number of positive sera [4] | reactivity with the recombinant monoclonal antibody [5] | PM/DM: number of positive sera [6] | SSC: number of positive sera [7] | infectious disease sera: number positive [8] | specificity in respect of infectious disease sera [8] [%] | pSS (%) positive [3] [%] | PM/DM (%) positive [6] [%] |
| --- | --- | --- | --- | --- | --- | --- | --- | --- | --- | --- | --- | --- | --- | --- | --- | --- |
| SHQESTXGRSRGRSGRSGS (SHQEST[Cit]GRSRGRSGRSGS-NH2; N-terminus assumed; SMILES C[C@@H](O)[C@H](NC(=O)[C@H](CO)NC(=O)[C@H](CCC(=O)O)NC(=O)[C@H](CCC(N)=O)NC(=O)[C@H](Cc1c[nH]cn1)NC(=O)[C@@H](N)CO)C(=O)N[C@@H](CCCNC(N)=O)C(=O)NCC(=O)N[C@@H](CCCNC(=N)N)C(=O)N[C@@H](CO)C(=O)N[C@@H](CCCNC(=N)N)C(=O)NCC(=O)N[C@@H](CCCNC(=N)N)C(=O)N[C@@H](CO)C(=O)NCC(=O)N[C@@H](CCCNC(=N)N)C(=O)N[C@@H](CO)C(=O)NCC(=O)N[C@@H](CO)C(N)=O) [cfc1] | 36 | about 36% | 49 | 0.6 | 1 | less than 2% | 0 | 2 | 1 | reactive | 0 | 0 | 9 | 97 |  |  |
| SHQESTXGRSXGRSGRSGS (SHQEST[Cit]GRS[Cit]GRSGRSGS-NH2; N-terminus assumed; SMILES C[C@@H](O)[C@H](NC(=O)[C@H](CO)NC(=O)[C@H](CCC(=O)O)NC(=O)[C@H](CCC(N)=O)NC(=O)[C@H](Cc1c[nH]cn1)NC(=O)[C@@H](N)CO)C(=O)N[C@@H](CCCNC(N)=O)C(=O)NCC(=O)N[C@@H](CCCNC(=N)N)C(=O)N[C@@H](CO)C(=O)N[C@@H](CCCNC(N)=O)C(=O)NCC(=O)N[C@@H](CCCNC(=N)N)C(=O)N[C@@H](CO)C(=O)NCC(=O)N[C@@H](CCCNC(=N)N)C(=O)N[C@@H](CO)C(=O)NCC(=O)N[C@@H](CO)C(N)=O) [cfc7] | 45 |  | 60 | 0.6 | 1 |  | 1 |  | 0 |  | 1 | 0 |  |  | 2 | 2 |
| SHQESTXGXSRGRSGRSGS (SHQEST[Cit]G[Cit]SRGRSGRSGS-NH2; N-terminus assumed; SMILES C[C@@H](O)[C@H](NC(=O)[C@H](CO)NC(=O)[C@H](CCC(=O)O)NC(=O)[C@H](CCC(N)=O)NC(=O)[C@H](Cc1c[nH]cn1)NC(=O)[C@@H](N)CO)C(=O)N[C@@H](CCCNC(N)=O)C(=O)NCC(=O)N[C@@H](CCCNC(N)=O)C(=O)N[C@@H](CO)C(=O)N[C@@H](CCCNC(=N)N)C(=O)NCC(=O)N[C@@H](CCCNC(=N)N)C(=O)N[C@@H](CO)C(=O)NCC(=O)N[C@@H](CCCNC(=N)N)C(=O)N[C@@H](CO)C(=O)NCC(=O)N[C@@H](CO)C(N)=O) [cfc6] | 48 |  | 65 | 0.6 | 1 |  | 2 |  | 0 |  | 1 | 0 |  |  | 4 | 2 |
